This experiment concerns the target T1, androgen receptor (Homo sapiens, UniProt P10275).
T1 construct: endogenous in cells; host or cells: VCaP
T1 sequence (P10275 1-920): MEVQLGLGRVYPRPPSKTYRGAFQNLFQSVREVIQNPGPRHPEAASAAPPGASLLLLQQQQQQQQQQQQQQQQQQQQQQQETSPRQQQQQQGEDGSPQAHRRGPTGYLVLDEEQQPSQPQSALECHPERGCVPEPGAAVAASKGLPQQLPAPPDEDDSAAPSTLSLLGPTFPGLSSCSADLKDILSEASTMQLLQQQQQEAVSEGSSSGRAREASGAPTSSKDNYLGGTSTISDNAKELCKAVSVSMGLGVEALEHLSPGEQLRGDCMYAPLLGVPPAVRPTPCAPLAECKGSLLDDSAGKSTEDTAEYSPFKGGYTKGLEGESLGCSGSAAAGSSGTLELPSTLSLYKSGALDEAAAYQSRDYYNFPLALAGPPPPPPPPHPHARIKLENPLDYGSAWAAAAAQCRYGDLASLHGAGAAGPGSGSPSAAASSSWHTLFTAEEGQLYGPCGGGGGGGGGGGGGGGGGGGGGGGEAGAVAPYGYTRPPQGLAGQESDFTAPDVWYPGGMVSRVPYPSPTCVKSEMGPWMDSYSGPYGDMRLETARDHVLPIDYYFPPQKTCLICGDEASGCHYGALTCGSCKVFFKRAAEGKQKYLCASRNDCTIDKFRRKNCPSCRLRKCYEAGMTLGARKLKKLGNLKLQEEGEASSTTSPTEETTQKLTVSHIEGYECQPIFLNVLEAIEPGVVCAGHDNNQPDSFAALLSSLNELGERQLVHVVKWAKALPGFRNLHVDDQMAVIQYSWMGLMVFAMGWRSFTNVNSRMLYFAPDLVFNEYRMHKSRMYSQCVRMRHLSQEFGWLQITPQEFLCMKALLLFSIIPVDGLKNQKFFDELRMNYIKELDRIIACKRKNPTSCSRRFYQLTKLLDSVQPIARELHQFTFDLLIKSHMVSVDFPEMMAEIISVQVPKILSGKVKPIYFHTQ
The experiment is described as follows: AR ELISA assay (PathScan AR Sandwich ELISA), VCaP cells. Format: cell-based. The conditions noted are these: drug treatment 5 hours. The method, then:
Compounds were evaluated in this assay in LNCaP and/or VCaP cells utilizing similar protocols. The protocols used with VCaP cells are described below. The androgen receptor ELISA assay was performed using PathScan AR Sandwich ELISA (Cell Signaling Catalog #12850) according to the following assay steps:
VCaP cells were seeded at 40,000 cells/well at a volume of 100 μL/well in VCaP assay medium [Phenol red free RPMI (Gibco Cat #11835-030); 5% Charcoal Stripped (Dextran treated) FBS (Omega Scientific, Cat #FB-04); 1% penstrep (Life Technologies, Gibco Cat #: 10378-016)] in Corning 3904 plates. The cells were incubated for a minimum of 3 days. Cells were dosed with PROTACs diluted in 0.01% DMSO and the drug treatment was allowed for 5 hours.
AR ELISA (Cell Signaling) was performed as follows. 1× Cell Signaling Cell lysis buffer was made (Catalogue #9803; comes with the kit). Media from the treated wells is aspirated, and 100 μL 1× cell lysis buffer/well is added. The cells were placed on a shaker for 10 minutes at 4° C. Twenty microliters of lysate was transferred to 100 μl of Diluent in ELISA plate (0.15 μg/ml-[…]). The lysate-diluent mixture was shaken for 30 minutes at 37° C. Allow mouse AR antibody, anti-mouse antibody, TMB, and STOP solution to come to room temperature. The 1×ELISA buffer included in kit was made and loaded in the reservoir. Media from the plates was discarded, the ELISA plate tapped hard on paper towel, and washed 4×200 μl ELISA wash buffer using a plate washer.
One-hundred (100) […] of mouse AR detection Ab was added; the plates were covered and shaken at 37° C. for 1 hour; media was discarded from the plates, the plates were tapped on a paper towel, washed 4× with 200 μL ELISA wash buffer with a plate washer.
One-hundred (100) […] of anti-mouse—HRP conjugated Ab (comes with the kit) was added; the plates were covered and shaken at 37° C. for 30 minutes; the TMB reagent was allowed to come to room temperature; the media was discard from the plate, the plates were tapped on paper towel, washed 4× with 200 μL of ELISA wash buffer; the plates were tapped the plates on paper towel. One-hundred (100) L of TMB was added and the plates shaken for 2 minutes—while watching for color development. One-hundred (100) L Stop solution was added when light blue color developed. Plates were shaken and read at 450 nm.
Progression of prostate cancer in patients treated with anti-androgen therapy usually involves one of several mechanisms of enhanced Androgen Receptor (AR) signaling, including increased intratumoral androgen synthesis, increased AR expression and AR mutations. PROTACs (PROteolysis TArgeting Chimera), which use bi-functional molecules that simultaneously bind a target of choice and an E3 ligase, cause ubiquitination via induced proximity and degradation of the targeted, pathological protein. As opposed to traditional target inhibition, which is a competitive process, degradation is a progressive process. As such, it is less susceptible to increases in endogenous ligand, target expression, or mutations in the target. Thus, this technology appears to be ideal for addressing the mechanisms of AR resistance in patients with prostate cancer. Data was analyzed and plotted using GraphPad Prism software.
Take `CC1(C)[C@H](NC(=O)c2ccc(N3CCC(CN4CCN(c5ccc(C(=O)NC6CCC(=O)NC6=O)cc5)CC4)CC3)nn2)C(C)(C)[C@H]1Oc1ccc(C#N)c(Cl)c1` (stereo partly shown) [Compound 3, N-[3-(3-chloro-4-cyanophenoxy)-2,2,4,4-tetramethylcyclobutyl]-6-[4-[(4-[4-[(2,6-dioxopiperidin-3-yl)carbamoyl]phenyl]piperazin-1-yl)methyl]piperidin-1-yl]pyridazine-3-carboxamide]: the DC50 is < 1 nM and the Dmax was ≥ 70%.
As for `CC1(C)[C@H](NC(=O)c2ccc(N3CCC(CN4CCN(c5cccc(C(=O)NC6CCC(=O)NC6=O)c5)CC4)CC3)cc2)C(C)(C)[C@H]1Oc1ccc(C#N)c(Cl)c1` (stereo partly drawn) [Compound 4, 3-(4-((1-(4-(((1R,3R)-3-(3-chloro-4-cyanophenoxy)-2,2,4,4-tetramethylcyclobutyl)carbamoyl)phenyl)piperidin-4-yl)methyl)piperazin-1-yl)-N-(2,6-dioxopiperidin-3-yl)benzamide], the DC50 was < 1 nM and the Dmax was < 50%.
In the case of `Cc1cc(O[C@H]2C(C)(C)[C@H](NC(=O)c3ccc(N4CCC(CN5CCN(c6cncc(C(=O)NC7CCC(=O)NC7=O)c6)CC5)CC4)cc3)C2(C)C)cc(C)c1C#N` (stereo partly shown) [Compound 5, N-(2,6-dioxopiperidin-3-yl)-5-(4-[[1-(4-[[(1r,3r)-3-(4-cyano-3,5-dimethylphenoxy)-2,2,4,4-tetramethylcyclobutyl]carbamoyl]phenyl)piperidin-4-yl]methyl]piperazin-1-yl)pyridine-3-carboxamide], the DC50 was < 1 nM and the Dmax was < 50%.
On to `Cc1cc(O[C@H]2C(C)(C)[C@H](NC(=O)c3ccc(N4CCC(CN5CCN(c6ccc(F)c(C(=O)NC7CCC(=O)NC7=O)c6)CC5)CC4)cc3)C2(C)C)cc(C)c1C#N` (stereo partly drawn) [Compound 6, 5-(4-((1-(4-(((1R,3R)-3-(4-cyano-3,5-dimethylphenoxy)-2,2,4,4-tetramethylcyclobutyl)carbamoyl)phenyl)piperidin-4-yl)methyl)piperazin-1-yl)-N-(2,6-dioxopiperidin-3-yl)-2-fluorobenzamide], for which the DC50 was < 1 nM and the Dmax fell in the range of 50 to 70%.
`CC1(C)[C@H](NC(=O)c2ccc(N3CCC(CN4CCN(c5ccc(C(=O)NC6CCC(=O)NC6=O)cc5)CC4)CC3)cc2)C(C)(C)[C@H]1Oc1ccc(C#N)c(Cl)c1` (stereo partly drawn) [Compound 7, N-((1R,3R)-3-(3-chloro-4-cyanophenoxy)-2,2,4,4-tetramethylcyclobutyl)-4-(4-((4-(4-((2,6-dioxopiperidin-3-yl)carbamoyl)phenyl)piperazin-1-yl)methyl)piperidin-1-yl)benzamide]: the DC50 was < 1 nM and the Dmax is ≥ 70%.
For `CC1(C)[C@H](NC(=O)c2ccc(N3CCC(CN4CCN(c5ccc(F)c(C(=O)NC6CCC(=O)NC6=O)c5)CC4)CC3)cc2)C(C)(C)[C@H]1Oc1ccc(C#N)c(Cl)c1` (stereo partly drawn) [Compound 8, 5-(4-((1-(4-(((1R,3R)-3-(3-chloro-4-cyanophenoxy)-2,2,4,4-tetramethylcyclobutyl)carbamoyl)phenyl)piperidin-4-yl)methyl)piperazin-1-yl)-N-(2,6-dioxopiperidin-3-yl)-2-fluorobenzamide] the same measures were < 1 nM and < 50%.
With `CC(C)N(CC1CCN(c2cnc(C(=O)N[C@H]3C(C)(C)[C@H](Oc4ccc(C#N)c(Cl)c4)C3(C)C)cn2)CC1)[C@H]1C[C@H](Oc2cccc(C(=O)NC3CCC(=O)NC3=O)c2)C1` (stereo partly drawn) [Compound 9, N-((1R,3R)-3-(3-chloro-4-cyanophenoxy)-2,2,4,4-tetramethylcyclobutyl)-5-(4-((((1R,3R)-3-(3-((2,6-dioxopiperidin-3-yl)carbamoyl)phenoxy)cyclobutyl)(isopropyl)amino)methyl)piperidin-1-yl)pyrazine-2-carboxamide], the DC50 is ≥ 100 nM and the Dmax was < 50%.
As to `Cc1cc(O[C@H]2C(C)(C)[C@H](NC(=O)c3ccc(N4CCC(CN5CCN(c6ccnc(C(=O)NC7CCC(=O)NC7=O)c6)CC5)CC4)cc3)C2(C)C)cc(C)c1C#N` (stereo partly drawn) [Compound 10, 4-(4-((1-(4-(((1R,3R)-3-(4-cyano-3,5-dimethylphenoxy)-2,2,4,4-tetramethylcyclobutyl)carbamoyl)phenyl)piperidin-4-yl)methyl)piperazin-1-yl)-N-(2,6-dioxopiperidin-3-yl)picolinamide], the DC50 was < 1 nM and the Dmax was in the range of 50 to 70%.
For `Cc1cc(O[C@H]2C(C)(C)[C@H](NC(=O)c3cnc(N4CCC(CN(C(C)C)[C@H]5C[C@H](Oc6cccc(C(=O)NC7CCC(=O)NC7=O)c6)C5)CC4)nc3)C2(C)C)cc(C)c1C#N` (stereo partly drawn) [Compound 11, N-((1R,3R)-3-(4-cyano-3,5-dimethylphenoxy)-2,2,4,4-tetramethylcyclobutyl)-2-(4-((((1R,3R)-3-(3-((2,6-dioxopiperidin-3-yl)carbamoyl)phenoxy)cyclobutyl)(isopropyl)amino)methyl)piperidin-1-yl)pyrimidine-5-carboxamide] the same measures were < 1 nM and 50 to 70%.
For `Cc1cc(O[C@H]2C(C)(C)[C@H](NC(=O)c3cnc(N4CCC(CN(C(C)C)[C@H]5C[C@H](Oc6ccc(C(=O)NC7CCC(=O)NC7=O)cc6)C5)CC4)nc3)C2(C)C)cc(C)c1C#N` (stereo partly drawn) [Compound 12, N-((1R,3R)-3-(4-cyano-3,5-dimethylphenoxy)-2,2,4,4-tetramethylcyclobutyl)-2-(4-((((1R,3R)-3-(4-((2,6-dioxopiperidin-3-yl)carbamoyl)phenoxy)cyclobutyl)(isopropyl)amino)methyl)piperidin-1-yl)pyrimidine-5-carboxamide] the same measures were < 1 nM and ≥ 70%.
Compound `Cc1cc(O[C@H]2C(C)(C)[C@H](NC(=O)c3cnc(N4CCC(CN(C(C)C)[C@H]5C[C@H](Oc6ccc(C(=O)NC7CCC(=O)NC7=O)cc6)C5)CC4)cn3)C2(C)C)cc(C)c1C#N` (stereo partly drawn) [Compound 13, N-((1R,3R)-3-(4-cyano-3,5-dimethylphenoxy)-2,2,4,4-tetramethylcyclobutyl)-5-(4-((((1R,3R)-3-(4-((2,6-dioxopiperidin-3-yl)carbamoyl)phenoxy)cyclobutyl)(isopropyl)amino)methyl)piperidin-1-yl)pyrazine-2-carboxamide] registered a DC50 of 1 to 10 nM and a Dmax of 50 to 70%.

The values are drawn from patent publication US12427144B2, “Compounds and methods for the targeted degradation of androgen receptor” (Arvinas Operations, Inc., priority 2019, dated 2025).
